# Patent US9363996B2, “Compositions and method for blocking ethylene response in field crops using 3-(cy-clopropyl-l-enyl)-propanoic salt” (Yissum Research Development Company of the Hebrew …, priority 2009, dated 2016)
# Experiments:
# wheat plants [1] = experiment: Wheat grain weight at the milky stages after Ethephon treatment; assay type: in vivo, wheat (Triticum turgidum var. 'Gdera'); details: Ethephon 750 μL L^−1, sandy soil
# Method: (§1) (1) Abscission—This is a very sensitive model system for studying the effects of plant hormones. Ethylene induces the process of abscission, while auxin delays it. In the laboratory the experimental system is based on plant organ explants, which include the abscission zone. Abscission is induced by exposure to ethylene and at the termination of the experiment the number of abscised organs, usually either leaf blades or petioles are counted and the fraction of abscission is calculated. In the case of fruit, the decrease in fruit retention force is analyzed. In cotton, when WS-CPD (the ethylene-action antagonist herein disclosed) is tested, the whole plants or explants are pretreated by spraying with the antagonist, dissolved in a phosphate buffer solution (10-20 mM, pH 7.0) including 0.1% commercially available Kinetic™ as surfactant, and left to incubate for a predetermined time, usually between 6 and 24 h. The plants or explants are then further exposed for 24 h to ethylene gas (5 to 20 μL L^−1). The plants or explants are then ventilated and incubated for the required time under controlled conditions. At the end of the experiment the percentage of abscission is determined. (2) Chlorophyll degradation—This is a standard model for studying senescence. Plant material (whole plants, excised leaves or leaf discs) are pretreated. In cotton, tobacco and wheat, when WS-CPD is tested, the whole plants or explants are pretreated by spraying with the antagonist, dissolved in phosphate buffer solution (10-20 mM, pH 7.0) including 0.1% commercially available Kinetic™ surfactant, and left to incubate for a predetermined time, usually between 6 and 241. The plants or explants are then further exposed for 24 h to ethylene gas (1 to 100 μL L^−1), or sprayed with Ethephon™ (wheat; 250 to 750 μL L^−1). The plants or explants are then ventilated and incubated for the required time under controlled conditions. At the end of the experiment a dimethylsulfoxide (DMSO) extract of the plant tissue is prepared, and the chlorophyll content of the extract is determined by spectrophotometric analysis. The chlorophyll content is reported either on a fresh, dry weight basis, or on a surface area basis. (3) Epinasty—This is also one of the classical methods for studying ethylene effects in plants. The extent of ethylene-induced epinasty of leaves is determined by measuring the change of the angle between the petiole and the stem shoot or blade. After exposure of the intact plant to ethylene, the upright grown leaves bend downward. The increase in the angle values (degrees) between petiole and the stem is used as a measure of the effect of the ethylene. When WS-CPD is tested on cotton and wheat plants, the whole plants are pretreated by spraying with the antagonist dissolved in phosphate buffer solution (10-20 mM, pH 7.6) including 0.1% Kinetic™ as surfactant, and left to incubate for a predetermined time, usually between 6 and 24 h. The plants are then further exposed for 24 h to ethylene gas (cotton, 5 to 10 μL L^−1), or sprayed with Ethephon™ (wheat, 250 to 750 μL L^−1). The plants are then ventilated and incubated for the required time under controlled conditions. The epinastic effect is expressed by measuring the degree values of the downward curvature between the blade and petiole (cotton, FIGS. 1-3) or between the blade and the stem (wheat, FIGS. 31 and 32). (4) Wheat Grain yield—This is a common test of the effects of exposure of monocot plants either to environmental stresses such as drought that induce senescence by increasing endogenous ethylene production. Excessive internal or external ethylene will accelerate senescence which will lead to reduced grain yield. In this project the intact plants were grown in the greenhouse up to the spike hading at milky stage I and II. The plants were then sprayed with the dissolved WS-CPD in phosphate buffer solution (10 mM, pH 7.6) including 0.1% Kinetic™ as surfactant. Young Cotton Seedlings […]
# wheat plants [2] = experiment: Ethephon-induced chlorophyll degradation in wheat leaves, glumes and chaffs; assay type: in vivo, wheat (Triticum turgidum var. 'Gdera'); details: for reduction of chlorophyll content: chaffes; for reduction of chlorophyll content / reduction in chlorophyll content: milky stage I; for decrease of chlorophyll content: Ethephon 250 and 750 μL L^−1 at milky stage I, after 5-6 days; for reduction in chlorophyll content: glumes
# Method: as §1
# wheat plants [3] = experiment: Ethephon-induced flag leaf epinasty of wheat plants after spike heading; assay type: in vivo, wheat (Triticum turgidum var. 'Gdera'); details: Ethephon 750 μL L^−1 spray alone
# Method: (1) Abscission—This is a very sensitive model system for studying the effects of plant hormones. Ethylene induces the process of abscission, while auxin delays it. In the laboratory the experimental system is based on plant organ explants, which include the abscission zone. Abscission is induced by exposure to ethylene and at the termination of the experiment the number of abscised organs, usually either leaf blades or petioles are counted and the fraction of abscission is calculated. In the case of fruit, the decrease in fruit retention force is analyzed. In cotton, when WS-CPD (the ethylene-action antagonist herein disclosed) is tested, the whole plants or explants are pretreated by spraying with the antagonist, dissolved in a phosphate buffer solution (10-20 mM, pH 7.0) including 0.1% commercially available Kinetic™ as surfactant, and left to incubate for a predetermined time, usually between 6 and 24 h. […] At the end of the experiment the percentage of abscission is determined. […] At the end of the experiment a dimethylsulfoxide (DMSO) extract of the plant tissue is prepared, and the chlorophyll content of the extract is determined by spectrophotometric analysis. […] The extent of ethylene-induced epinasty of leaves is determined by measuring the change of the angle between the petiole and the stem shoot or blade. […]
# [4] = test system: young cotton leaf explants; experiment: Ethylene-induced petiole abscission of young cotton leaf explants; assay type: in vivo, cotton (Gossyium hirsutum barbadense L.); details: ethylene alone
# Method: (1) Abscission—This is a very sensitive model system for studying the effects of plant hormones. Ethylene induces the process of abscission, while auxin delays it. In the laboratory the experimental system is based on plant organ explants, which include the abscission zone. Abscission is induced by exposure to ethylene and at the termination of the experiment the number of abscised organs, usually either leaf blades or petioles are counted and the fraction of abscission is calculated. In the case of fruit, the decrease in fruit retention force is analyzed. In cotton, when WS-CPD (the ethylene-action antagonist herein disclosed) is tested, the whole plants or explants are pretreated by spraying with the antagonist, dissolved in a phosphate buffer solution (10-20 mM, pH 7.0) including 0.1% commercially available Kinetic™ as surfactant, and left to incubate for a predetermined time, usually between 6 and 24 h. The plants or explants are then further exposed for 24 h to ethylene gas (5 to 20 μL L^−1). The plants or explants are then ventilated and incubated for the required time under controlled conditions. At the end of the experiment the percentage of abscission is determined. (2) Chlorophyll degradation—This is a standard model for studying senescence. Plant material (whole plants, excised leaves or leaf discs) are pretreated. In cotton, tobacco and wheat, when WS-CPD is tested, the whole plants or explants are pretreated by spraying with the antagonist, dissolved in phosphate buffer solution (10-20 mM, pH 7.0) including 0.1% commercially available Kinetic™ surfactant, and left to incubate for a predetermined time, usually between 6 and 241. […] At the end of the experiment a dimethylsulfoxide (DMSO) extract of the plant tissue is prepared, and the chlorophyll content of the extract is determined by spectrophotometric analysis. […] The extent of ethylene-induced epinasty of leaves is determined by measuring the change of the angle between the petiole and the stem shoot or blade. […]
# tobacco seedlings = experiment: Ethylene-induced chlorophyll degradation in tobacco seedling leaves; assay type: in vivo, tobacco (Nicotiana tabacum var. 'Samsun'); details: ethylene alone
# Method: (1) Abscission—This is a very sensitive model system for studying the effects of plant hormones. Ethylene induces the process of abscission, while auxin delays it. In the laboratory the experimental system is based on plant organ explants, which include the abscission zone. Abscission is induced by exposure to ethylene and at the termination of the experiment the number of abscised organs, usually either leaf blades or petioles are counted and the fraction of abscission is calculated. In the case of fruit, the decrease in fruit retention force is analyzed. In cotton, when WS-CPD (the ethylene-action antagonist herein disclosed) is tested, the whole plants or explants are pretreated by spraying with the antagonist, dissolved in a phosphate buffer solution (10-20 mM, pH 7.0) including 0.1% commercially available Kinetic™ as surfactant, and left to incubate for a predetermined time, usually between 6 and 24 h. The plants or explants are then further exposed for 24 h to ethylene gas (5 to 20 μL L^−1). The plants or explants are then ventilated and incubated for the required time under controlled conditions. At the end of the experiment the percentage of abscission is determined. (2) Chlorophyll degradation—This is a standard model for studying senescence. Plant material (whole plants, excised leaves or leaf discs) are pretreated. In cotton, tobacco and wheat, when WS-CPD is tested, the whole plants or explants are pretreated by spraying with the antagonist, dissolved in phosphate buffer solution (10-20 mM, pH 7.0) including 0.1% commercially available Kinetic™ surfactant, and left to incubate for a predetermined time, usually between 6 and 241. The plants or explants are then further exposed for 24 h to ethylene gas (1 to 100 μL L^−1), or sprayed with Ethephon™ (wheat; 250 to 750 μL L^−1). The plants or explants are then ventilated and incubated for the required time under controlled conditions. At the end of the experiment a dimethylsulfoxide (DMSO) extract of the plant tissue is prepared, and the chlorophyll content of the extract is determined by spectrophotometric analysis. The chlorophyll content is reported either on a fresh, dry weight basis, or on a surface area basis. (3) Epinasty—This is also one of the classical methods for studying ethylene effects in plants. The extent of ethylene-induced epinasty of leaves is determined by measuring the change of the angle between the petiole and the stem shoot or blade. After exposure of the intact plant to ethylene, the upright grown leaves bend downward. The increase in the angle values (degrees) between petiole and the stem is used as a measure of the effect of the ethylene. […]
# wheat seedlings = experiment: Third leaf growth of young wheat seedlings exposed to ethylene; assay type: in vivo, wheat (Triticum turgidum var. 'Gdera'); details: for inhibition of growth of the third leaf: additional experiment
compound,measurement,setting,value
"O=P(O)(O)CCCl [Ethephon, reference compound]",reduction of grain weight,wheat plants [1]; stage I,4%
same,reduction of grain weight,wheat plants [1]; stage II,18%
same,reduction of chlorophyll content,wheat plants [2]; Ethephon 250 μL L^−1,33%
same,reduction of chlorophyll content,wheat plants [2]; Ethephon 750 μL L^−1,28%
same,decrease of chlorophyll content,wheat plants [2]; flag leaf,16-21%
same,reduction of the content of chlorophyll,"wheat plants [2]; flag leaf, Ethephon 750 μL L^−1, milky stage II",33%
same,chlorophyll lower compared with the untreated control spikes,"wheat plants [2]; glumes and chaffs, Ethephon 750 μL L^−1, milky stage II",12%
same,reduction in chlorophyll content,wheat plants [2]; Ethephon 250 μL L^−1,10%
same,reduction in chlorophyll content,wheat plants [2]; Ethephon 750 μL L^−1,40%
same,decrease of chlorophyll content,wheat plants [2]; leaf II,21-22%
same,reduction of the content of chlorophyll,"wheat plants [2]; leaf II, Ethephon 750 μL L^−1, milky stage II",47%
same,flag leaf epinasty,wheat plants [3],strong leaf epinasty
C=C [ethylene],rate of petiole abscission,[4],accelerated
same,reduction of chlorophyll content,tobacco seedlings; mature (lower) leaves,72%
same,decrease in chlorophyll content as compared with air-treated leaves,tobacco seedlings; young (upper) leaves,17%
same,inhibition of growth of the third leaf,wheat seedlings; ethylene 1.6 μL L^−1,20%
same,inhibition of growth of the third leaf,wheat seedlings; ethylene 20 μL L^−1,35%
same,length of the third leaf longer than air-control leaf,"wheat seedlings; ethylene 1 μL L^−1, continuous exposure",50%
same,inhibition of growth of the third leaf compared to air control,wheat seedlings; ethylene 10 μL L^−1,50%
same,inhibition of growth of the third leaf compared to air control,wheat seedlings; ethylene 100 μL L^−1,30%
